Where “and” joins values, the source holds several entries; their conditions need not be identical. Equal values may be shown once. Entries after “also recorded” stand apart in the source; their conditions may differ.
How the values were obtained:
[1] = test system: P-HER2; experiment: Immunohistochemical staining of SKBR3 tumor sections; type: in vivo, mouse; settings: tumors resected after sacrifice
Procedure: For the immunohistochemical analysis, the hydrated paraffin section was incubated in a blocking solution (10% donkey serum +5% nonfat dry milk +4% BSA +0.1% Triton X-100) for 10 min, and then incubated at 4° C. overnight with anti-P-HER2, P-AKT, P-ERK. After washing with PBS, the sections were incubated with diluted (1:200) biotinylated secondary antibody for 30 min. Subsequently, the sections were washed again in PBS and incubated for 30 min with the preformed avidin-horseradish peroxidase macromolecular complex. Development of peroxidase reaction was achieved by incubation in 0.01% 3, 3-diaminobenzidine tetrahydrochloride (DAB) in PBS containing 0.01% hydrogen peroxide for approximately 5 min at room temperature. Sections were then washed thoroughly in tap water, counterstained in haematoxylin, dehydrated in absolute alcohol, cleared in xylene and mounted in synthetic resin for microscopic examination.

[2] = test system: P-HER2; experiment: Western blot of HER2 phosphorylation in SKBR3 cells; type: cell-based, human; settings: for inhibition of HER2 phosphorylation (in words): SKBR3 cell lysates, western blot; for expression of P-HER2: 10 μM
Procedure: (§1) SKBR3 cells were seeded into a 6-well plate at a concentration of 1×10^5 cells/well. After 12 h attachment at 37° C. and 5% CO2, the cells were starved overnight in serum-reduced McCoy's 5A Medium followed by treatment with different concentration of M-3-6 or M-3-6-D for 4 h, and then washed with ice-cold PBS and resuspended in ice-cold RIPA buffer supplemented with Halt Protease and Phosphatase Inhibitor Cocktail. Subsequently, the cells were incubated on ice for 10 min and centrifuged at 14,000×g at 4° C. for 10 min. An equal amount of protein was run on 4-12% Bis-Tris gels, transferred to polyvinylidene difluoride membranes (Millipore) and western blotted with anti-phosphorylated HER2, anti-phosphorylated AKT, anti-phosphorylated ERK and GAPDH. The experiments were conducted in triplicates and repeated for three times.

[3] = molecular target: T1, HER2 ECD (Homo sapiens, UniProt P04626); experiment: Surface plasmon resonance (SPR) binding to HER2
T1 construct: Fc (human IgG Fc); purchased Creative BioMart
T1 sequence (P04626 23-652): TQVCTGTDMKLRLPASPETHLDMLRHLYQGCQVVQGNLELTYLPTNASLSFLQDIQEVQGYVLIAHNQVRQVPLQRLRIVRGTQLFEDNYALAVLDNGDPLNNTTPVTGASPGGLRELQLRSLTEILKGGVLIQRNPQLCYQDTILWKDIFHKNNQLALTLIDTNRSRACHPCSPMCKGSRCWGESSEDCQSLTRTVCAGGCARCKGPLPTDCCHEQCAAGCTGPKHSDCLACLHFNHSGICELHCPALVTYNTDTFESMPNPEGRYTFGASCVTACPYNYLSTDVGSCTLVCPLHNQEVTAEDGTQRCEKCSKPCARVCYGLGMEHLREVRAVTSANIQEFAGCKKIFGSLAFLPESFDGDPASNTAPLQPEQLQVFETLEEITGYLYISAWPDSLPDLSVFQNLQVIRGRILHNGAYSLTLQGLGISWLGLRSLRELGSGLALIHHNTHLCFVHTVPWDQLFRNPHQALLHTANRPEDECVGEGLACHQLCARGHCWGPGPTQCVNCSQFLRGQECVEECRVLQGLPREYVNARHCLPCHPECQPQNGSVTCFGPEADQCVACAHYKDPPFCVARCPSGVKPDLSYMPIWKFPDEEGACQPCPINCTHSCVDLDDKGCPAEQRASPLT

[4] = test system: P-ERK; experiment: Western blot of ERK phosphorylation in SKBR3 cells; type: cell-based; settings: for phosphorylation of ERK (in words): SKBR3 cell lysates, western blot
Procedure: as §1

[5] = test system: pronase; settings: 0.1 mg/mL pronase, 100 mM ammonium bicarbonate buffer, 37° C., 24 h
Text: Then, the reaction mixtures were concentrated in a speed vacuum to remove water and ammonium bicarbonate. The resulting residues were re-dissolved in H2O/MeCN and analyzed on a Waters analytical HPLC system.

[6] = test system: SKBR3 tumor xenograft; experiment: Antitumor study in SKBR3 xenograft nude mice, tumor volume; type: in vivo, mouse; settings: for tumor volume after the last drug injection on day 12: after end of dosing, until day 24
Procedure: Male BALB/c nude mice, 4-6 weeks old, were provided by the Shanghai Bikai Experimental Animal Center, with the license number SOXK (Hu) 2008-0016, and maintained under specific-pathogen-free conditions.
SKBR3 cells were harvested, resuspended in PBS, and injected subcutaneously into 4-6 weeks old Male BALB/c nude mice. […] Mice were injected through the intraperitoneal every two days for seven injections. 12 days after injection, the mice in each group were killed, and the tumors were removed for examination. The tumor volumes were determined by measuring length (1) and width (w) and calculating volume (V=lw^2/2).

[7] = i.p. every two days for two weeks
Procedure: SKBR3 cells were harvested, resuspended in PBS, and injected subcutaneously into 4-6 weeks old Male BALB/c nude mice. […] Mice were injected through the intraperitoneal every two days for seven injections.

[8] = test system: SKBR3 cells; experiment: Inhibition of EGF-induced cell proliferation (CCK-8); type: cell-based; settings: SKBR3, EGF 100 ng/mL
Procedure: SKBR3 cells were cultured in McCoy's 5A Medium (Gibco) medium containing 10% fetal bovine serum and 1% penicillin/streptomycin in an atmosphere of 5% CO2 at 37° C.
SKBR3 cells in good condition were seeded into a 96-well plate at a concentration of 1×10^3 cells/well in 100 μL of complete growth medium. After 24 hours of attachment at 37° C. and 5% CO2, medium was replaced by fresh serum reduced McCoy's 5A Medium and cell were serum-starved overnight. Then serum-reduced EGF (100 ng/mL) McCoy's 5A Medium in the presence of different concentration of M-3-6 and M-3-6-D was added to the cells in hexaplicate. After 72 h, the CCK-8 reagents were added according to the manufacturer's recommendations.

[9] = molecular target: T2, HER2 (Homo sapiens, UniProt P04626); experiment: Fluorescence polarization (FP) binding assay; settings: 50 nM FITC labeled AApeptide, HER2 0 to 2 μM in PBS
T2 construct: Fc (human IgG Fc); purchased Creative BioMart
T2 sequence (P04626 23-652): as above
Procedure: The FP experiment was performed by incubating 50 nM FITC labeled AApeptides with HER2 (0 to 2 μM) in PBS. Dissociation constants (Kd) was determined by plotting the fluorescence anisotropy values as a function of protein concentration, and the plots were fitted to the following equation. The Lst is the concentration of the AApeptides and the x stands for the concentration of the protein. The experiments were conducted in triplicates and repeated for three times. y=FPmin+(FPmax−FPmin)*(KD+Lst+x-sqrt((KD+Lst+x)^2−4*Lst*x))/(2*Lst)

[10] = molecular target: EGFR (Homo sapiens, UniProt P00533); experiment: Surface plasmon resonance (SPR) binding to EGFR (selectivity)
EGFR, sequence (P00533 25-1210): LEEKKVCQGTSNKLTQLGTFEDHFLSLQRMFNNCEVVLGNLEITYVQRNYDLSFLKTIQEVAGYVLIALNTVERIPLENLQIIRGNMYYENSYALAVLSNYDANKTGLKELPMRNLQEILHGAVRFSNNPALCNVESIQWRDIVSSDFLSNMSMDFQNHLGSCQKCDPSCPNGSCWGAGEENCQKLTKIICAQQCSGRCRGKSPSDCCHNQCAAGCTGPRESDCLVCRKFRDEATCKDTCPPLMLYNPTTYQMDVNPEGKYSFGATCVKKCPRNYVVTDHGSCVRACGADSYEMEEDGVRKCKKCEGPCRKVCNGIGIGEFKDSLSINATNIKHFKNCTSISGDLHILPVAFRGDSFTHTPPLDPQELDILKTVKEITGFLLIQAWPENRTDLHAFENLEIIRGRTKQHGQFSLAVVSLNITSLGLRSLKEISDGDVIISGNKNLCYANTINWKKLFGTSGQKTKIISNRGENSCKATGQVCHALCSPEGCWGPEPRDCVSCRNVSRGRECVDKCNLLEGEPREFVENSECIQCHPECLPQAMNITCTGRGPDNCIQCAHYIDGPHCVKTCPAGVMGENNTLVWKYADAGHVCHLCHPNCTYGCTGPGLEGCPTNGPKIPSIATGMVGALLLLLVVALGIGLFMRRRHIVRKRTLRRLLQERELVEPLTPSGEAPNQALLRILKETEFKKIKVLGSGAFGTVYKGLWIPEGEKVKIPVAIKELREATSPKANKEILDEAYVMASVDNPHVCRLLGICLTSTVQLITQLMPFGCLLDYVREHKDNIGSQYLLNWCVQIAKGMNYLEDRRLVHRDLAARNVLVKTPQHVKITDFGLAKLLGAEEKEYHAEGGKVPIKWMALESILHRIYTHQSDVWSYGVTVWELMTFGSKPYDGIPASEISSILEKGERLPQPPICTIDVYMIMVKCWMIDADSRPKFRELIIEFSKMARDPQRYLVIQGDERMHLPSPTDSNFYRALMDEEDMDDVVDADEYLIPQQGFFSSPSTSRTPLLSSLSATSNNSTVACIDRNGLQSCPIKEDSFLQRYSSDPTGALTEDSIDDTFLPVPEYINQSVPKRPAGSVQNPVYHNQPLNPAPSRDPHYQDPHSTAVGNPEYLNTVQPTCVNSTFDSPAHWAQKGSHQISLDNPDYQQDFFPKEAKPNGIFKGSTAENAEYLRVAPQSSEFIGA
Procedure: Next, the binding affinity of both M-3-6 and M-3-6-D to HER2 ECD in vitro were measured by surface plasmon resonance (SPR) assay (FIG. 10 in supporting information). […]. In addition, EGFR, known as ERBB1, another member of the human epidermal growth factor receptor family was chosen to test the selectivity of M-3-6. […].
Binding kinetics of M-3-6 or M-3-6-D to HER2 was measured by surface plasmon resonance (OpenSPR, Nicoyalife). After HER2 was covalently coupled to the carboxyl sensor chips (Nicoyalife), M-3-6 or M-3-6-D in PBS running buffer (pH 7.4) was slowly flowed over the sensor chip for 5 min to allow interaction. The running buffer was then allowed to flow for 10 min to collect the dissociation data. After subtracting the background, the signal response vs. time curve was obtained, binding kinetic parameters were obtained by fitting the curve to a one-to-one binding model using Trace-Drawer (Nicoyalife) software.

[11] = test system: P-AKT; experiment: Western blot of AKT phosphorylation in SKBR3 cells; type: cell-based
Procedure: as §1

[12] = 8 mg/kg i.p. every two days for two weeks

SMILES | phosphorylation level of HER2 in tumor sections [1] | inhibition of HER2 phosphorylation (in words) [2] | expression of P-HER2 ([2]; SKBR3 cells, 4 h) | improvement of binding to HER2 compared with monomer M-3-6 [3] | phosphorylation of ERK (in words) [4] | degradation by pronase monitored by HPLC [5] | tumor volume / antitumor effect [6, 12] | tumor volume after the last drug injection on day 12 [6] | effect on body weight gain [7] | inhibition of EGF-induced proliferation (in words) [8] | Kd [9] | weaker binding to EGFR than to HER2 [10] | IC50 ([2]; SKBR3 cells, 0-30 μM, 4 h, read-out: IC50 inhibition of HER2 phosphorylation) | IC50 ([4]; SKBR3 cells, 4 h) | tumor volume / antitumor effect ([6]; 32 mg/kg i.p. every two days for two weeks) | phosphorylation of AKT (in words) ([11]; SKBR3 cell lysates, western blot) | IC50 ([11]; SKBR3 cells, 4 h) | IC50 ([8]; serum-reduced, 72 h, read-out: IC50 antiproliferative activity on EGF-stimulated cells)
COc1cc(CC(=O)N2CC(=O)N[C@@H](Cc3ccccc3)CN(C(=O)Cc3ccc4ccccc4c3)CC(=O)N[C@@H](CCCCN)CN(C(=O)Cc3ccc4c(c3)OCO4)CC(=O)N[C@@H](CCCCN)CN(CC(=O)N[C@@H](CCCCNC(=O)COCCOCCNC(=O)Cn3cc(COc4cc(OCc5cn(CC(=O)NCCOCCOCC(=O)NCCCC[C@H](NC(=O)CN6C[C@H](CCCCN)NC(=O)CN(C(=O)Cc7ccc8c(c7)OCO8)C[C@H](CCCCN)NC(=O)CN(C(=O)Cc7ccc8ccccc8c7)C[C@H](Cc7ccccc7)NC(=O)CN(C(=O)Cc7cc(OC)cc(OC)c7)C[C@H](CC(C)C)NC(=O)c7ccc(cc7)CSCCC6=O)C(N)=O)nn5)cc(C(=O)NCCNC(=O)OC(C)(C)C)c4)nn3)C(N)=O)C(=O)CCSCc3ccc(cc3)C(=O)N[C@@H](CC(C)C)C2)cc(OC)c1 [M-3-6-D] | comparable efficiency with trastuzumab | even stronger inhibition of phosphorylation than M-3-6; also recorded: much more effective phosphorylation inhibition compared with M-3-6 | almost complete blocked | ~7 fold | more pronounced effect on the suppression of P-ERK compared with P-AKT | no detectable degradation | significantly inhibit the tumor growth; also recorded: significant antitumor effect | significant reduction in tumor volume was still observed | ignorable effect on the body weight gain | inhibited EGF-induced proliferation significantly in a dose-dependent manner |  |  |  |  |  |  |  | 
COc1cc(CC(=O)N2CC(=O)N[C@@H](Cc3ccccc3)CN(C(=O)Cc3ccc4ccccc4c3)CC(=O)N[C@@H](CCCCN)CN(C(=O)Cc3ccc4c(c3)OCO4)CC(=O)N[C@@H](CCCCN)CN(CC(=O)NCCC(=O)NC(CCCCNC(=S)Nc3ccc(-c4c5ccc(=O)cc-5oc5cc(O)ccc45)c(C(=O)O)c3)C(N)=O)C(=O)CCSCc3ccc(cc3)C(=O)N[C@@H](CC(C)C)C2)cc(OC)c1 (some centres unmarked) [M-3-6-F] |  |  |  |  |  |  |  |  |  |  | 0.28 µM and 0.278 µM |  |  |  |  |  |  | 
COc1cc(CC(=O)N2CC(=O)N[C@@H](Cc3ccccc3)CN(C(=O)Cc3ccc4ccccc4c3)CC(=O)N[C@@H](CCCCN)CN(C(=O)Cc3ccc4c(c3)OCO4)CC(=O)N[C@@H](CCCCN)CN(CC(N)=O)C(=O)CCSCc3ccc(cc3)C(=O)N[C@@H](CC(C)C)C2)cc(OC)c1 [M-3-6] | modest inhibitory effect | dose-dependent inhibition of HER2 receptor phosphorylation | relatively high |  | reduction in the phosphorylation of AKT and ERK |  | no significant reduction in tumor volume | significant tumor growth | ignorable effect on the body weight gain | inhibited EGF-induced proliferation significantly in a dose-dependent manner |  | 10 fold | 12.9 µM | 10.6 µM | much more improved antitumor effect | reduction in the phosphorylation of AKT and ERK | 16.9 µM | 17.9 µM

— US12162874B2, “Peptidomimetic-based antibody surrogate for HER2” (University of South Florida, priority 2021, dated 2024)
